Experimental data taken from PubChem BioAssay AID743417 (Broad Institute, 2014).
Results filed as inconclusive are left out.

System: Clone20 osteoblast Shn3 3'UTR firefly luciferase, 24 h
Experiment: Shn3 3'UTR reporter inhibitors, dose response, cell-based, Clone20 osteoblasts, luminescence, dry powder, set 2 (AID 743417)

Structure (SMILES)	AC50
COc1ccc(CNCCC(c2ccc(OC(C)C)cc2)c2ccccc2OC)cc1OC (stereo not drawn)	4.35 µM
CCCC(=O)NC(c1ccc(C(C)C)cc1)c1ccc2cccnc2c1O (stereo not drawn)	0.47 µM
Cc1ccc(-c2csc(N3CCC(NS(=O)(=O)c4ccc5c(c4)OCCO5)CC3)n2)cc1	2.15 µM
Cc1cc(C)c(C(N)=O)c(SCC(=O)c2cc(C)n(-c3cc(C)on3)c2C)n1	0.942 µM
CC(C)C(=O)NC(c1ccco1)c1ccc2cccnc2c1O (stereo not drawn)	2.05 µM
CN(C)C1=NC[C@H](Cc2ccccc2)N1CCCCc1ccccc1	8.01 µM
CC1CC(C)(O)CC(C(O)CC2CC(=O)NC(=O)C2)C1=O (stereo not drawn)	0.339 µM
Cc1ccccc1OCCn1cc(C(=S)N2CCCC2)c2ccccc21	24.3 µM
Cc1ccc(S(=O)(=O)N2CCCCC2)cc1NC(=O)Cn1ncc(Cl)c(Cl)c1=O	4.32 µM
CCOc1cc(C)c(S(=O)(=O)Nc2ccc3cn[nH]c3c2)cc1C	4.89 µM
CC(=O)OC1(C)CC(C)C(=O)C(C(O)CC2CC(=O)NC(=O)C2)C1 (stereo not drawn)	< 0.26 µM
O=C(c1cc(COc2c(F)cccc2F)on1)N1CCC(c2ccncc2)CC1	1.6 µM
O=c1[nH]c(Nc2nc3ccccc3o2)nc2c1CCCC2	7.71 µM
O=C(Nc1cccc(S(=O)(=O)Nc2ccc(Cl)cc2)c1)c1ccc(Cl)nc1	0.606 µM
COc1cccc(N2CCN(c3ncnc4c3cnn4-c3ccc(C)cc3C)CC2)c1	4.65 µM
O=C(c1ccoc1)N1CCN(c2cc(-c3cccc(F)c3)nc3cc(-c4cccc(Cl)c4)nn23)CC1	9.78 µM
CCC(C)C(NC(=O)CCCNC(=O)CCC(=O)OC1O[C@H]2OC3(C)CC[C@H]4[C@H](C)CCC(C1C)C24OO3)C(=O)O (stereo partly drawn)	1.02 µM
CCOc1cc(CNCCc2ccc(S(N)(=O)=O)cc2)ccc1OCc1ccc(Cl)cc1	3.87 µM
Cc1ccc(CC(=O)Nc2ccncc2)cc1	2.39 µM
CN(C)c1ccc(/C=C/c2ccc3ccccc3n2)cc1	1.33 µM
O=[N+]([O-])c1ccc(Sc2cccc3cccnc23)c([N+](=O)[O-])c1	1.71 µM
O=C(NNC(=O)C1CCN(S(=O)(=O)c2ccc(Cl)cc2)CC1)c1ccccc1O	18.5 µM
COc1ccc(CCNc2ncnc3c2oc2ccccc23)cc1OC	0.524 µM
COc1ccc(NC(=O)/C(Cl)=C(/Cl)S(=O)Cc2ccc(Cl)cc2)cn1 (stereo not drawn)	1.34 µM
CC(C)(C)[C@@H]1COC(=O)[C@@H](NC(=O)OCC2c3ccccc3-c3ccccc32)C/C=C\C[C@@H](CC(=O)NCCO)C(=O)N1	22.1 µM
O=c1oc2ccccc2c(Cl)c1CN1CCCCC1	4.99 µM

Structure (SMILES)	AC50
O=C(c1ccc(S(=O)(=O)c2ccc(F)cc2)c([N+](=O)[O-])c1)N1CCCCCC1	2.38 µM
CC1CCCC(NC(=O)c2cccc(S(=O)(=O)N3CCN(c4ccccc4)CC3)c2)C1C (stereo not drawn)	3.14 µM
CC(=O)NC(c1ccc(Cl)cc1)c1ccc2cccnc2c1O (stereo not drawn)	0.299 µM
O=S(=O)(c1ccc(Cl)cc1)N1CCN(Cc2ccc(O)c3ncccc23)CC1	3.01 µM
COc1ccc(NC(=O)c2nc(S(=O)(=O)Cc3cccc(C)c3)ncc2Cl)c(OC)c1	0.299 µM
Cc1ccc(Cn2ccc(=O)c(OCc3c(Cl)cccc3Cl)c2C)cc1	6.11 µM
O=C(/C=C/c1cccc([N+](=O)[O-])c1)n1cnc2ccccc21	0.594 µM
CC(=O)Nc1ccc(OCC(=O)Nc2ccc(Cl)c(S(=O)(=O)N3CCOCC3)c2)cc1	1.59 µM
COc1ccc(C(=O)NC2CCCc3c2cnn3-c2cccc(C)c2C)c(OC)n1 (stereo not drawn)	1.96 µM
CCC(=O)c1ccc(OCc2ccc(C(=O)c3ccccc3)cc2)cc1	3.29 µM
CS(=O)(=O)c1ccc(C(=O)OCC(=O)N2CCN(CCC3CCCCC3)CC2)cc1[N+](=O)[O-]	2.41 µM
COc1ccc(C(NC(=O)c2cccnc2)c2cc(Cl)c3cccnc3c2O)cc1OC (stereo not drawn)	1.88 µM
Cc1cccc(-c2noc(CN(C(=O)C(c3ccccc3)c3ccccc3)C(C)C)n2)c1	6.27 µM
CCn1c(=O)c(C(=O)Nc2nc3ccccc3[nH]2)c(O)c2ccccc21	6.01 µM
O=C(Nc1nc(-c2ccccn2)cs1)C1COc2ccccc2O1 (stereo not drawn)	5.81 µM
N#CC(c1ccc(Cl)cc1)c1ccc2c(C(F)(F)F)cc(C(F)(F)F)nc2n1 (stereo not drawn)	0.487 µM
COc1ccc(CNC(=O)c2nc(S(=O)(=O)Cc3ccccc3)ncc2Cl)cc1	0.956 µM
O=C(NCc1ccccc1C(F)(F)F)c1cccc2c1C(=O)c1ccc(N3CCC(N4CCCCC4)CC3)cc1S2(=O)=O	21.2 µM
CCOc1cc(N2CCOCC2)c(OCC)cc1NC(=O)c1cc(-c2ccco2)nc2ccccc12	8.94 µM
C=C1C(=O)[C@@]23[C@H](O)C[C@@H]4C(C)(C)CC[C@H](O)[C@]4(C)[C@@H]2C[C@H](O)[C@@H]1[C@H]3O	2.95 µM
O=C(Nc1nc2cc3c(cc2s1)OCCO3)C1=COCCO1	2.17 µM
Nc1nc(N)c(-c2cccc(C(F)(F)F)c2)c(Cc2cccc(C(F)(F)F)c2)n1	3.6 µM
CCOc1cc(N2CCOCC2)c(OCC)cc1NC(=O)COc1cccc2cccnc12	2.41 µM
C=CCSc1nc2ccccc2n1C(=O)/C=C/c1cc(OC)c(OC)c(OC)c1	1.13 µM
CCC(=O)OCCNc1cc(Sc2nc3ccccc3[nH]2)c2nonc2c1[N+](=O)[O-]	1.09 µM
CC(C)(CNC(=O)c1ccc(Cl)c(S(=O)(=O)N2CCc3ccccc3C2)c1)N1CCOCC1	10.5 µM

Structure (SMILES)	AC50
COc1ccc(-c2ccc(Nc3ccc(S(=O)(=O)N4CCCC4)cc3)nn2)cc1OC	20.1 µM
Cc1sc2ncnc(N3CCN(S(=O)(=O)c4ccc(Br)cc4)CC3)c2c1C	3.59 µM
OC[C@@H]1CN(Cc2ccncc2)C[C@H](n2cnc3c(N4CCN(c5ccccc5)CC4)ncnc32)O1	2.38 µM
COc1cc(C)c(NC(=O)COc2cccc3c2OC(C)(C)C3)cc1OC	7.06 µM
O=C(c1ccc(F)cc1)C(CN1CCOCC1)c1ccccc1 (stereo not drawn)	17.6 µM
O=S(=O)(Nc1cc(Sc2ncn[nH]2)c(O)c2ccccc12)c1ccccc1	7.55 µM
Cc1ccc2nc(NC(=O)C3CCN(S(=O)(=O)c4ccc5c(c4)oc(=O)n5C)CC3)sc2c1	3.35 µM
O=C(Oc1c(CN2CCOCC2)cc(Cl)c2cccnc12)c1ccccc1Cl	4.59 µM
C[C@H](NC(=O)c1nc[nH]c1C(=O)NCc1ccc(CNC(=O)OC(C)(C)C)cc1)c1ccccc1	11.7 µM
Cc1nc(-n2[nH]c3c(c2=O)CCCC3)[nH]c(=O)c1Cc1ccccc1	4.44 µM
Cc1nc2ccccn2c1C(=O)NC1CCCc2ccccc21 (stereo not drawn)	2.47 µM
CCC(C)[C@H]1CNC(=S)N1CCc1cc(C(F)(F)F)cc(C(F)(F)F)c1 (stereo partly drawn)	21.6 µM
CCOC(=O)c1c(C)[nH]c2c1-c1ccccc1C(=O)C2=O	0.496 µM
CC(C)(C)c1ccc(C(O)CCCN2CCC(C(O)(c3ccccc3)c3ccccc3)CC2)cc1 (stereo not drawn)	16.7 µM
COc1ccc2c(c1OC)C(=O)N1c3ccccc3C(=O)N(c3ccccc3F)C21 (stereo not drawn)	11.6 µM
C=C(C)[C@@H]1C2=CC(C(=O)OC)=C(C[C@H](C(=C)C)[C@H]3O[C@H]3C3=C[C@H]1OC3=O)O2	8.16 µM
CC(=O)OC[C@]12CC[C@H]3[C@@](C)(CC[C@H]4C(C)(C)CCC[C@]34C)[C@@H]1CC(C1=CC(=O)OC1O)O2 (stereo partly drawn)	0.634 µM
COc1ccccc1OCC(O)Cn1c(=N)n(Cc2ccccc2)c2ccccc21 (stereo not drawn)	4.01 µM
Cc1sc2ncnc(N3CCN(CCOc4ccc(Cl)cc4)CC3)c2c1C	1.35 µM
Cc1cccc(CCN2C(N(C)C)=NC[C@@H]2CC(C)C)c1	1.45 µM
CCOC(=O)c1c(C)[nH]c(C)c1C(=O)CSc1nc2ccccc2c(=O)n1-c1ccc(CC)cc1	5.36 µM
O=[N+]([O-])c1c(NCCCO)cc(Sc2nc3ccccc3s2)c2nonc12	1.58 µM
CC(C)(C)NC(=O)CSc1nc2ccc(NC(=O)CSc3nnnn3Cc3ccccc3)cc2s1	3.26 µM
C#CC(=O)N(c1ccc(OC)cc1OC)C(C(=O)NC1CCCC1)c1cccs1 (stereo not drawn)	7.12 µM
C#CC(=O)N(c1ccc(OC)c(OC)c1)C(C(=O)NC1CCCC1)c1cccs1 (stereo not drawn)	3.32 µM
CCn1nc(/C=C/c2ccccc2)nc2c(=O)n(C)c(=O)nc1-2	2.57 µM

Structure (SMILES)	AC50
Cc1ccc(Oc2ccc(OCC(=O)Nc3ccncc3)cc2)cc1	1.55 µM
OC(c1cc(-c2ccc(C(F)(F)F)cc2)nc(C(F)(F)F)c1)C1CCCCN1 (stereo not drawn)	4.73 µM
Cc1ccn2c(Nc3ccccc3)c(-c3ccccn3)nc2c1	2.31 µM
COc1ccccc1NC(=O)Cn1c(C)cc(=O)c2cccc(OC)c21	3.16 µM
O=C(Nc1ccc([N+](=O)[O-])cc1)Nc1ccc(OC(F)F)c(Cl)c1	3.59 µM
NS(=O)(=O)c1ccc(CCNCc2cc(Cl)ccc2OCc2ccccc2)cc1	4.46 µM
CCn1c(=NC(=O)CS(=O)(=O)c2ccccc2)sc2cccc(OC)c21	1.68 µM
COc1ccc(Cl)cc1N/C(N)=N/c1nc(CSc2ccc(C)cc2)cc(=O)[nH]1	1.82 µM
COc1ccccc1CNc1nc(Nc2cccc(-c3cnco3)c2)c2sccc2n1	5.61 µM
CC1CC(C)CC(C)C(O)C(C#N)=CC=CCC(C2CCCC2C(=O)O)OC(=O)CC(O)C(C)C1 (stereo not drawn)	< 0.26 µM
CCN(CC)c1ccc(/C=C2/SC(=O)N(C(C)C)C2=O)o1	3.46 µM
Cc1ccc(S(=O)(=O)N2CCN(C(=O)C3CCN(c4ncnc5sc(C)c(C)c45)CC3)CC2)c(C)c1	2.12 µM
Cc1ccc(NC(=O)c2oc3ccccc3c2COC(C)C)cc1S(=O)(=O)N1CCOCC1	14.4 µM
Cc1nc([N+](=O)[O-])c(Br)n1CC(=O)c1ccc2ccccc2c1	10.7 µM
Cc1ccccc1OCC(O)Cn1c(=N)n(Cc2ccccc2)c2ccccc21 (stereo not drawn)	2.25 µM
O=C(Nc1ccc(N2CCOCC2)c(Cl)c1)c1ccc([N+](=O)[O-])o1	6.23 µM
O=C(NCc1ccccc1)c1nc(S(=O)(=O)Cc2ccccc2)ncc1Cl	1.19 µM
O=C(c1ccc(Cn2c(=S)[nH]c3ccccc3c2=O)cc1)N1CCN(c2ccccn2)CC1	6.34 µM
CCc1c(C)nc2cc(-c3ccc(OC)c(OC)c3)nn2c1NCC1CC1	5.11 µM
COc1ccccc1N1CCN(C(=O)C2CCCN(S(=O)(=O)c3ccc4c(c3)CCCN4C(C)=O)C2)CC1 (stereo not drawn)	2.68 µM
CCN(CC)C(=O)c1oc2ccc(S(=O)(=O)N3CC(C)CC(C)C3)cc2c1C (stereo not drawn)	1.02 µM
CCc1nc(N)nc(N)c1-c1ccc(N(C)Cc2ccccc2)c([N+](=O)[O-])c1	< 0.26 µM
COc1ccc(-c2nsc3c(N4CCCCC4C)ncnc23)cc1 (stereo not drawn)	< 0.26 µM
COc1ccc(CNc2ncnc3ccccc23)cc1	0.674 µM
CCOC(=O)c1oc2ccc(S(=O)(=O)n3nc(-c4ccc(OC)cc4)cc3N)cc2c1C	1.99 µM
